Measured values reported in PubChem BioAssay AID1419 (Emory University Molecular Libraries Screening Center, 2008).
Activity calls are given as the source filed them. The rule behind the calls is not given here.

Assay: EBV protein-peptide binding inhibitors, dose response, biochemical, fluorescence polarization (AID 1419)
Conditions: cell-free protein-peptide binding, 2 h; for fold change: measured here: P channel fold over control, at 54 µM

SMILES	IC50	fold change
COc1ccc(C(CC(=O)N2CCCC2)c2c(OC)cc(OC)c3c(-c4ccccc4)cc(=O)oc23)cc1 (stereo not drawn)	> 54 µM (inactive)	0.95
CN1CCCc2cc3c(C(F)(F)F)cc(=O)oc3nc21	< 0.42 µM	18.4
O=C(Nc1ccc2nc3ccccc3nc2c1)c1ccccc1	15.5 µM	1.85
Cc1ccc(/C=C2\Sc3ccccc3C2=O)s1	> 54 µM (inactive)	1.61
O=c1c(/C=N/Nc2ccccc2)c(Sc2nnnn2-c2ccccc2)nc2ccccn12	4.73 µM	37.5
O=C(CSc1n[nH]c(=O)[nH]c1=O)Nc1ccc2c(c1)C(=O)c1ccccc1C2=O	9.26 µM	1.21
O=C(c1nc2n(n1)C(c1ccc(Cl)cc1)C=C(c1ccccc1)N2)N1CCOCC1 (stereo not drawn)	2.27 µM	5.19
CCN(CC)C(=O)CSc1nnc2nnc3cc(Cl)ccc3n12	4.38 µM	3.1
COc1cc(CN2CCN(c3cccc(C)c3C)CC2)cc(OC)c1O	> 54 µM (inactive)	1.03
Cn1cc(/C=C2\SC(=S)N(NC(=O)c3ccccc3)C2=O)c2ccccc21	> 54 µM (inactive)	5.3
COc1ccc(C2C(C(C)=O)=C(C)N=c3s/c(=C\c4cc(C)n(C)c4C)c(=O)n32)c(OC)c1 (stereo not drawn)	4.29 µM	11.8
Nc1ccc2nc3c(=O)n(C4CCCCC4)c(=O)[nH]c3nc2c1	< 0.42 µM	101
CN1CC=C2C(C#N)=C(N)C(C#N)(C#N)[C@H](c3ccoc3)[C@H]2C1	> 54 µM (inactive)	1.96
Cn1c(/N=C/c2c(O)ccc3ccccc23)nc2ccccc21	3.17 µM	41.9
CC(=O)Nc1ccc2cc3ccc(NC(C)=O)cc3nc2c1	0.56 µM	12.5
N#C/C(=C\C1=C(N2CCOCC2)C(=C\c2ccc(Cl)cc2)/CC1)C(=O)Nc1ccccc1F	3.43 µM	4.49
CCCCC1=CC2=C(c3ccco3)C(=O)C(C)(OC(=O)c3ccc(OC)cc3)C(=O)C2=CN1CCc1ccccn1 (stereo not drawn)	> 54 µM (inactive)	1.16
C=CCn1c(CSc2nc3ccccc3s2)nnc1SCC(=O)NCc1ccco1	> 54 µM (inactive)	0.923
CCCN1C(=O)/C(=C/C=C2\N(CC)c3ccccc3C2(C)C)SC1=S	0.95 µM	12
COC(=O)c1cc(C(=O)c2ccc(Cl)cc2)n2c(=O)/c(=C\N(C)C)sc12	51.9 µM (inactive)	1.56
CCn1cc(C(=O)NCc2ccccn2)c(=O)c2cc(S(=O)(=O)N3CCCCC3)ccc21	0.74 µM	4.52
Cc1ccc(-c2cn3nc(-c4ccccc4)c(-c4ccccc4)nc3n2)cc1	1.31 µM	37.6
Cc1c2ccccc2nc2c(F)c(NC(C)C)c(F)c(F)c12	< 0.42 µM	4.96
CCOC(=O)C1CCCN(c2ccc([N+](=O)[O-])c3nonc23)C1 (stereo not drawn)	< 0.42 µM	143
Cc1cccn2c(=O)c3cc(C(=O)NCc4ccco4)c(=N)n(CCOCCO)c3nc12	3.61 µM	3.76
CCOC(=O)c1cc2n(c1/N=C/N(C)C)-c1ccccc1C2=O	< 0.42 µM	42.3
O=[N+]([O-])c1ccc(O)c(N=Cc2sc3ccccc3c2O)c1	> 54 µM (inactive)	1.45
Cc1ccc(C)n1-c1cc(S(=O)(=O)N2CCOCC2)ccc1N1CCCC1	> 54 µM (inactive)	1.02
CSc1nc(SCC(=O)O)c2sc3nc(-c4ccccc4)c4c(c3c2n1)CCC4	3.47 µM	1.08
